Assay: recombinant barcode read abundance after kanamycin selection (control-corrected) (log10(CPM+1)); higher = more efficient recombination; sequences stand for … in AGTGCAGAGAAAATCGGCCAGTTTTCTCTGCCTGCAGTCCGCATGCCGT…AGATTTATGCAGCGGACTGCCTTTCTCCCAAAGTGATAAACCGGACAGTATCATGGACCGGTTTTCCCGGTAATCCGTATTTGCAAGGTTGGTTTCACT; site = the 11-nt target
How it was run: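 A vector carrying a T7-inducible recombinase and the last 73 bp of the bridge RNA received, by Gibson cloning, oligos encoding a promoter, target, barcode and the first 104 bridge RNA bases under J23119. The pooled constructs entered E. coli together with a donor plasmid by electroporation. Selection used chloramphenicol/ampicillin/kanamycin with 0.1 mM IPTG, with chloramphenicol/ampicillin LB agar as the control, each in two replicates. Recombination efficiency is the averaged, control-corrected counts-per-million of barcodes at recombinant junctions, reported as log10(CPM+1).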
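Note: IS621 recombinase and bridge RNA in Escherichia coli cells.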

In order of falling “recombinant barcode read abundance (log10)” value:
1. CATCCTACTTGGGTTCTAACCTGTTGCGG (site CATCCTACTCC)  1.98
2. CATAACCCTTGGGTTCTAACCTGTTGCAT (site CATAACCCTAT)  1.84
3. CAGTGCTCTTGGGTTCTAACCTGTTGCCA (site CAGTGCTCTTG)  1.52
4. CATCGGACTTGGGTTCTAACCTGTTGCAG (site CATCGGACTCT)  1.48
5. CAGTGTCCTTGGGTTCTAACCTGTTGCCG (site CAGTGTCCTCG)  1.45
6. CATCTACCTTGGGTTCTAACCTGTTGCGG (site CATCTACCTCC)  1.39
7. CATCCGTCTTGGGTTCTAACCTGTTGCTT (site CATCCGTCTAA)  1.24
8. CATGACCCTTGGGTTCTAACCTGTTGCCT (site CAAGACCCTAG)  0.993
9. CATGACCCTTGGGTTCTAACCTGTTGCCT (site CACGACCCTAG)  0.774
10. CATCCTACTTGGGTTCTAACCTGTTGCAT (site CATCCTACTAT)  0.665
11. CAGTGCTCTTGGGTTCTAACCTGTTGCCA (site CAATGCTCTAG)  0.648
12. CATCTATCTTGGGTTCTAACCTGTTGCCT (site CATCTATCTAG)  0.624
13. CATCGATCTTGGGTTCTAACCTGTTGCCT (site CATCGATCTAG)  0.558
14. CATCAGCCTTGGGTTCTAACCTGTTGCCT (site CATCAGCCTAG)  0.547
15. CATCCGGCTTGGGTTCTAACCTGTTGCCT (site CATCCGGCTAG)  0.434
16. CATCTATCTTGGGTTCTAACCTGTTGCCT (site CATCGATCTAG)  0.353
17. CATCTACCTTGGGTTCTAACCTGTTGCGG (site TTGGATACTTG)  0.332
18. CATCCGGCTTGGGTTCTAACCTGTTGCCT (site CATCCGACTAG)  0.317
19. CATCAGCCTTGGGTTCTAACCTGTTGCCT (site CATGAGCCTAG)  0.306
20. CATCGCACTTGGGTTCTAACCTGTTGCCT (site CCTCGCACTAG)  0.289
21. CATCCGGCTTGGGTTCTAACCTGTTGCCT (site CATCCGTCTAG)  0.255
22. CATCAGCCTTGGGTTCTAACCTGTTGCCT (site CATAAGCCTAG)  0.206
23. CATCGCACTTGGGTTCTAACCTGTTGCCT (site CTTCGCACTAG)  0.184
24. CATCGCACTTGGGTTCTAACCTGTTGCCT (site CGTCGCACTAG)  0.153
25. CATCGGACTTGGGTTCTAACCTGTTGCAG (site ACATAAGCTAG)  0.139
26. CAGTGTCCTTGGGTTCTAACCTGTTGCCG (site GAGCGTCCTCG)  0.122
27. CATCGCACTTGGGTTCTAACCTGTTGCCT (site CATCGCACTAG)  0.0933
28. CATCCTACTTGGGTTCTAACCTGTTGCAT (site CATCCTACTCG)  0.0637
29. CATCAGCCTTGGGTTCTAACCTGTTGCCT (site CATTAGCCTAG)  0.0622
30. CATAACCCTTGGGTTCTAACCTGTTGCAT (site ATCGGATCTCG)  0.0317
31. CATCCGGCTTGGGTTCTAACCTGTTGCCT (site CATCCGCCTAG)  0.0278
32. CATCGTACTTGGGTTCTAACCTGTTGCAT (site CCTCGGACTAT)  0.0241
33. CATCCGTCTTGGGTTCTAACCTGTTGCTT (site CATCCCTCTAA)  0.0222
34. CATCCTACTTGGGTTCTAACCTGTTGCGG (site CATCCTCCTCA)  0.0136
35. CATCGTACTTGGGTTCTAACCTGTTGCAT (site CATCGTACTAT)  0.00546
36. CATCGATCTTGGGTTCTAACCTGTTGCCT (site CATCTATCTAG)  0
